Results reported in ChEMBL document CHEMBL2380199, “Ostreol A: a new cytotoxic compound isolated from the epiphytic dinoflagellate Ostreopsis cf. ovata from the coastal waters of Jeju Island, Korea” (Bioorg Med Chem Lett, 2013).
Values after ≈ are worked out from the molar mass of the structure shown.

Test: Toxicity in Artemia salina after 24 hrs
Assay type: organism-based
Conditions: in vivo, read-out: LD50

| Compound | LC50 at 24 h [µg/mL] |
| --- | --- |
| CC1=C(O)[C@@](O)([C@@H]2C[C@H]3OC(=O)[C@H](C)[C@@H]4CCC[C@@]5(CC[C@H](O5)[C@H](O)[C@@]5(C)CC(=O)[C@H](O5)[C@H]5C[C@]6(C)CC[C@](O5)(O6)[C@H]5CC[C@](C)(C[C@@H](C)/C=C(C)/C=C/[C@H]3O2)O5)O4)OCC1 | 2.5 (≈ 2.92 µM) |
| C=CCC/C=C/CCCC/C=C/[C@@H](O)[C@H](O)[C@@H]1O[C@@H]([C@H](O)[C@H](O)C(=C)CC[C@@H](O)[C@H]2C[C@@H](O)[C@@H](O)[C@H]([C@@H](O)[C@H](O)/C=C(C)/C=C/CC(O)CC(O)CNC(=O)C(O)C(O)C/C=C\C(O)C(O)/C(C)=C/CCCC(O)/C=C/CC(O)/C=C/CC(O)CN)O2)C[C@@H](O)[C@H]1O (some centres not stated) | 0.9 (≈ 0.685 µM) |
